Data on 25 molecules can be found in patent US10214519B2, “Phosphatidylinositol 3-kinase inhibitors” (Gilead Sciences, Inc., priority 2016, dated 2019).

The target of this test is PI3Kβ (Homo sapiens (Human), UniProt P42338). As to the kind of experiment: PI3K isoform TR-FRET enzymatic assay (PI3Kβ). To be noted: 2× Km ATP, 30 minutes at 25° C. It counts as biochemical. On the procedure: The compounds of formula (I) were characterized for their enzymatic activity against the PI3K isoforms. The activities were measured using a time-resolved fluorescence resonance energy transfer (TR-FRET) assay. TR-FRET monitored the formation of 3,4,5-inositol triphosphate molecule that competed with fluorescently labeled PIP3 for binding to the GRP-1 pleckstrin homology domain protein.
Sequence of PI3Kβ (P42338 whole entry, the tested form may be a part, canonical isoform): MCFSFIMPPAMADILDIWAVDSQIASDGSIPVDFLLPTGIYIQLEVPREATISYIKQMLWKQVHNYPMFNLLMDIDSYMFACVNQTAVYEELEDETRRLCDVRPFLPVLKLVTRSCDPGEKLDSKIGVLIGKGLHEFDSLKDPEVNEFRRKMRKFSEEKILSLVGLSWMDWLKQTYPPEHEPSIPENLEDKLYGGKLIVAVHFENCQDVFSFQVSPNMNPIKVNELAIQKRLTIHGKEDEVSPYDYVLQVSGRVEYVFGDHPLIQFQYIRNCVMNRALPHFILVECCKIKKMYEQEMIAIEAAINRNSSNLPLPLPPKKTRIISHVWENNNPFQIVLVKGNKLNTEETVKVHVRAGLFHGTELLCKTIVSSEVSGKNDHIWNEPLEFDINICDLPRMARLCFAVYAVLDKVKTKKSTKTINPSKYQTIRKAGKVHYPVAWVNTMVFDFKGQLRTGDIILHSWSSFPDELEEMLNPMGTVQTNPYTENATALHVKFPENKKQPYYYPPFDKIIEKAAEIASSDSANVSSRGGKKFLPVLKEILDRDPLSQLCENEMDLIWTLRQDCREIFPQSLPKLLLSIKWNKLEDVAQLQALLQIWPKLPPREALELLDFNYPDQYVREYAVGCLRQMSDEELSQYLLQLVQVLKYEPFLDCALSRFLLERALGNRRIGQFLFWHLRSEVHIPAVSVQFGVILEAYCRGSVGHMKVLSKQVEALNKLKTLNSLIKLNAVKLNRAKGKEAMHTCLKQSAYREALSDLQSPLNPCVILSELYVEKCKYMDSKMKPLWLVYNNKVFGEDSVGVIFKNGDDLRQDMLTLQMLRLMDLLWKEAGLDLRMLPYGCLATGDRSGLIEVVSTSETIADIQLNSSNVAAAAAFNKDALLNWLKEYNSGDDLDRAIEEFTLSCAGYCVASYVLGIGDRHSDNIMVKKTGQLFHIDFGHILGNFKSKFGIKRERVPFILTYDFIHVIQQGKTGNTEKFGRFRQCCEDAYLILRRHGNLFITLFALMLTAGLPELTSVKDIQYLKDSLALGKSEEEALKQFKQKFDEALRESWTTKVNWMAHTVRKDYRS
Sequence of PI3Kβ (P27986 whole entry partner, the tested form may be a part, canonical isoform): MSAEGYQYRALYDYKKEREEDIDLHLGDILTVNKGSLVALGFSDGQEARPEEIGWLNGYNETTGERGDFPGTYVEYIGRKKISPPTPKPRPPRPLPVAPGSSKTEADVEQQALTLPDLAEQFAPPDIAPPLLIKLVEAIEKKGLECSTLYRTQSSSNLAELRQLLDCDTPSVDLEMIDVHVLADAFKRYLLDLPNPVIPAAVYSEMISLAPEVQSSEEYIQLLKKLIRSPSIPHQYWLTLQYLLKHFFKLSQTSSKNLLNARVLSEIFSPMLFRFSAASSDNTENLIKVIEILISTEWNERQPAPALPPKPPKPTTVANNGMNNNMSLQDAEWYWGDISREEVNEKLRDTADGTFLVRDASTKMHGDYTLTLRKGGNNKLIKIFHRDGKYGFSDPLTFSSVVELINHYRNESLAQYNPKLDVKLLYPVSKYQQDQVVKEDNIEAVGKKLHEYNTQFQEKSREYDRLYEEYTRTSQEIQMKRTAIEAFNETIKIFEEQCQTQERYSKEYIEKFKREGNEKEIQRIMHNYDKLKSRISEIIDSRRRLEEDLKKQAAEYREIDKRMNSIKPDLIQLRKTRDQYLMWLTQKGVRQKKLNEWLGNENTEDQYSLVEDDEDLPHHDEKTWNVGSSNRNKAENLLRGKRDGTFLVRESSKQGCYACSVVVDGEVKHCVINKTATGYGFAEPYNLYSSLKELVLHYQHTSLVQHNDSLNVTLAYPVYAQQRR
Class I PI3K isoforms were expressed and purified as heterodimeric recombinant proteins. All assay reagents and buffers for the TR-FRET assay were purchased from Millipore. […] The compounds were added to the assay solution and incubated for 30 minutes at 25° C. The reactions were terminated with a final concentration of 10 mM EDTA, 10 nM labeled-PIP3, and 35 nM Europium labeled GRP-1 detector protein before reading TR-FRET on an Envision plate reader (Ex: 340 nm; Em: 615/665 nm; 100 μs delay and 500 μs read window).
The results were normalized based on positive (1 μM wortmanin) and negative (DMSO) controls, and the IC50 values for PI3K α, β, δ, and γ were calculated from the fit of the dose-response curves to a four-parameter equation.

For orientation: IC50 means the concentration that inhibits the measured activity by half.

For `Cc1nc2c(-c3nnc[nH]3)cc(N3CCOCC3)cc2n1-c1ccnc2c(Cl)ccc(F)c12` [Example 87, 4-[3-(8-chloro-5-fluoroquinolin-4-yl)-2-methyl-7-(4H-1,2,4-triazol-3-yl)benzimidazol-5-yl]morpholine], the half-inhibitory concentration (IC50) stood at 14 nM.

Consider `Cc1nc2c(-c3cnn[nH]3)cc(N3CCOCC3)cc2n1-c1ccnc2c(F)ccc(F)c12` [Example 377, 4-(1-(5,8-difluoroquinolin-4-yl)-2-methyl-4-(1H-1,2,3-triazol-5-yl)-1H-benzo[d]imidazol-6-yl)morpholine], for which the IC50 amounted to 35 nM.

On to `CCc1nc2c(-c3ncco3)cc(N3CCOCC3)cc2n1-c1ccnc2c(Cl)c(F)ccc12` [Example 218, 4-[3-(8-chloro-7-fluoroquinolin-4-yl)-2-ethyl-7-(1,3-oxazol-2-yl)benzimidazol-5-yl]morpholine], for which the IC50 was 11 nM.

`Cc1nnc(-c2cc(N3CCOCC3)cc3c2nc(C)n3-c2ccnc3c(F)ccc(F)c23)[nH]1` (atropisomer, axis not shown) [Compound 351, (R)-4-(1-(5,8-difluoroquinolin-4-yl)-2-methyl-4-(5-methyl-4H-1,2,4-triazol-3-yl)-1H-benzo[d]imidazol-6-yl)morpholine] showed an IC50 of 460 nM.

In the case of `Cc1nnc(-c2cc(N3CCOCC3)cc3c2nc(C)n3-c2ccnc3c(Cl)cc(F)cc23)[nH]1` [Example 18, 4-(1-(8-chloro-6-fluoroquinolin-4-yl)-2-methyl-4-(5-methyl-4H-1,2,4-triazol-3-yl)-1H-benzo[d]imidazol-6-yl)morpholine], the IC50 was 63 nM. Against the preceding molecule, the IC50 is about 7.3-fold lower. The result for `Cc1nc2c(-c3cccc(C(N)=O)c3)cc(N3CCOCC3)cc2n1-c1ccnc2c(-c3cccc(C(N)=O)c3)cccc12` [Example 322, 3-[4-[4-(3-carbamoylphenyl)-2-methyl-6-morpholin-4-ylbenzimidazol-1-yl]quinolin-8-yl]benzamide] reads over 10000 nM. Next, `Cc1nc2c(-c3nnc(C(F)(F)F)[nH]3)cc(N3CCOCC3)cc2n1-c1ccnc2c(Cl)cccc12` [Example 136, 4-[3-(8-chloroquinolin-4-yl)-2-methyl-7-[5-(trifluoromethyl)-4H-1,2,4-triazol-3-yl]benzimidazol-5-yl]morpholine]: 48 nM. Next, `Cc1cc(-n2c(C)nc3c(-c4nc(C)n[nH]4)cc(N4CCOCC4)cc32)c2ccccc2n1` [Example 73, 4-[2-methyl-3-(2-methylquinolin-4-yl)-7-(3-methyl-1H-1,2,4-triazol-5-yl)benzimidazol-5-yl]morpholine]: 78 nM; `Clc1cccc2c(-n3c(C4COC4)nc4c(-c5nnc[nH]5)cc(N5CCOCC5)cc43)ccnc12` [Example 113, 4-[3-(8-chloroquinolin-4-yl)-2-(oxetan-3-yl)-7-(4H-1,2,4-triazol-3-yl)benzimidazol-5-yl]morpholine]: 17 nM; `Cc1cc(-n2c(C)nc3c(-c4cnc[nH]4)cc(N4CCOCC4)cc32)c2cccc(F)c2n1` [Example 210, 4-[3-(8-fluoro-2-methylquinolin-4-yl)-7-(1H-imidazol-5-yl)-2-methylbenzimidazol-5-yl]morpholine]: 27 nM. `Clc1cccc2c(-n3c(C4CCC4)nc4c(-c5nnc[nH]5)cc(N5CCOCC5)cc43)ccnc12` [Example 30, 4-(1-(8-chloroquinolin-4-yl)-2-cyclobutyl-4-(4H-1,2,4-triazol-3-yl)-1H-benzo[d]imidazol-6-yl)morpholine] registered an IC50 of 8 nM.

Regarding `Fc1ccc2c(-n3c(C4CC4)nc4c(-c5nnc[nH]5)cc(N5CCOCC5)cc43)ccnc2c1F` [Example 143, 4-[2-cyclopropyl-3-(7,8-difluoroquinolin-4-yl)-7-(4H-1,2,4-triazol-3-yl)benzimidazol-5-yl]morpholine], the IC50 came out at 84 nM. `Clc1cccc2c(-n3c(C4CCCO4)nc4c(-c5ccccc5)cc(N5CCOCC5)cc43)ccnc12` (stereo not shown) [Example 198] returned an IC50 of 120 nM. With `Fc1ccc(Cl)c2nccc(-n3c(C4CC4)nc4c(-c5nccs5)cc(N5CCOCC5)cc43)c12` [Example 247, 4-(1-(8-chloro-5-fluoroquinolin-4-yl)-2-cyclopropyl-4-(thiazol-2-yl)-1H-benzo[d]imidazol-6-yl)morpholine], the IC50 came out at 12 nM. Next, `Cc1nc2c(-c3cc[nH]c3)cc(N3CCOCC3)cc2n1-c1ccnc2c(Cl)cccc12` [Example 263, 4-[3-(8-chloroquinolin-4-yl)-2-methyl-7-(1H-pyrrol-3-yl)benzimidazol-5-yl]morpholine]: 13 nM. Regarding `Cc1nc2c(-c3nnc[nH]3)cc(N3CCOCC3)cc2n1-c1ccnc2c(C(F)(F)F)cccc12` [Example 108, 4-[2-methyl-7-(4H-1,2,4-triazol-3-yl)-3-[8-(trifluoromethyl)quinolin-4-yl]benzimidazol-5-yl]morpholine], the 50% inhibitory concentration (IC50) is 26 nM. `CC(C)Cc1nc2c(-c3nnc[nH]3)cc(N3CCOCC3)cc2n1-c1ccnc2c(Cl)cccc12` [Example 50, 4-(1-(8-chloroquinolin-4-yl)-2-isobutyl-4-(4H-1,2,4-triazol-3-yl)-1H-benzo[d]imidazol-6-yl)morpholine]: it took 16 nM to reach half-maximal inhibition (IC50). The result for `Cc1nc2c(-c3nnc[nH]3)cc(N3CCOCC3)cc2n1-c1ccnc2cccc(Cl)c12` [Example 84, 4-[3-(5-chloroquinolin-4-yl)-2-methyl-7-(4H-1,2,4-triazol-3-yl)benzimidazol-5-yl]morpholine] reads 17 nM; that for `Cc1nc2c(-c3nnc[nH]3)cc(N3CCOCC3)cc2n1-c1cc(-c2ccccc2)nc2ccccc12` [Example 59, 4-[2-methyl-3-(2-phenylquinolin-4-yl)-7-(4H-1,2,4-triazol-3-yl)benzimidazol-5-yl]morpholine], 130 nM.

Turning to `Cc1nc2c(-c3nnc[nH]3)cc(N3CCOCC3)cc2n1-c1ccnc2c(Cl)cccc12` (atropisomer, axis not shown) [Compound 360, 4-[3-(8-chloroquinolin-4-yl)-2-methyl-7-(4H-1,2,4-triazol-3-yl)benzimidazol-5-yl]morpholine], half-maximal inhibition (IC50) required 2800 nM.

In the case of `CCc1nc2c(-c3nnc[nH]3)cc(N3CCOCC3)cc2n1-c1c(C)cnc2c(C#N)cccc12` [Example 155, 4-(2-ethyl-6-morpholino-4-(4H-1,2,4-triazol-3-yl)-1H-benzo[d]imidazol-1-yl)-3-methylquinoline-8-carbonitrile], the midpoint of inhibition, the IC50, lay at 20 nM. The result for `Cc1nc2c(-c3nnn[nH]3)cc(N3CCOCC3)cc2n1-c1ccnc2c(Cl)cccc12` [Example 161] reads 23 nM; that for `CCc1nc2c(-c3nnc[nH]3)cc(N3CCOCC3)cc2n1-c1c(C)cnc2c(C#N)cccc12` (atropisomer, axis not shown) [Compound 365, 4-(2-ethyl-6-morpholino-4-(4H-1,2,4-triazol-3-yl)-1H-benzo[d]imidazol-1-yl)-3-methylquinoline-8-carbonitrile], 9100 nM.

Turning to `Cc1nc2c(-c3nnc[nH]3)cc(N3CCOCC3)cc2n1-c1c(Cl)cnc2ccccc12` [Example 128, 4-[3-(3-chloroquinolin-4-yl)-2-methyl-7-(4H-1,2,4-triazol-3-yl)benzimidazol-5-yl]morpholine], half-maximal inhibition (IC50) was put at 51 nM. `Cc1nc2c(-c3nnc[nH]3)cc(N3CCOCC3)cc2n1-c1ccnc2c(F)ccc(F)c12` [Example 114, 4-[3-(5,8-difluoroquinolin-4-yl)-2-methyl-7-(4H-1,2,4-triazol-3-yl)benzimidazol-5-yl]morpholine]: the IC50 is 12 nM.
